The source of these data is patent EP0134650B1, “High boiling solvent system for recovery of acetic acid from aqueous solutions” (CELANESE CORPORATION, priority 1983, dated 1985).

A short description of the data set: Dissolved water in the solvent layer (extract) of acetic acid extraction. Type of data set: physicochemical. The note with it: Acid in solvent layer 16.85 wt.%. From the text:
Generally as the distribution coefficient goes up, water solubility increases in the extract. The effect for methyl n-amyl ketone and diisobutyl ketone is as follows: […]

For `CCCCCC(C)=O` [methyl n-amyl ketone], the “Dissolved water in solvent layer, wt.%” value was found to be 5.0 wt.%.

In the case of `CC(C)CC(=O)CC(C)C` [diisobutyl ketone], the “Dissolved water in solvent layer, wt.%” value stood at 3.0 wt.%.
